What was measured:
[1] = Procedure: The lumenal pH (pHL) of liposomes was assayed with pyranine, a fluorescent dye with a pKa~7.3 and a λex =405 nm in its acid form (-3 charge) and a λex =455 nm in its basic form (-4 charge). To prepare pyranine loaded liposomes, lipids (2 mg POPC, 1 mg cholesterol) supplied in chloroform suspension were dried in a round bottom flask under argon for 2 hours. The lipids were then resuspended in acidic or alkaline liposome buffer (300 mM KCl, 20 mM MES, 20 mM MOPS, 20 mM Tricine titrated with KOH to either pH 6.2 or pH 8.1) containing 0.5 mM pyranine. The suspension was incubated at room temperature overnight, then freeze-thawed 6×. Unilamellar liposomies were prepared by extrusion 3× through 2 stacked 100 nm Nucleopore (Corning/Costar Scientific, Acton, Mass.) polycarbonate filters in an Avestin (Vancouver, BC) extruder at 600 PSI.
The pyranine fluorescence was calibrated as a function of pH by diluting the liposomes with pH 6.2 into a weakly buffered solution of identical pH (300 mM KCl, 1 mM MES, 1 mM MOPS, 1 mM Tricine, pH 6.2), 1 μM nigericin to allow rapid equilibration with external pH and 5 mM DPX to quench external pyranine. The ratio of the fluorescence emission at λem =510 nm was monitored with dual excitation wavelengths of λex =405 nm and λex =455 nm. Sequential aliquots of 0.1 mM glycylglycine, pH 8.4 were added to increase pH (See FIG. 5). The fluorescence was measured after each addition and the pH was measured using a pH meter. […] The cahiration curve for the liposomes of lumenal pH 8.1 was generated identically except sequential aliquots of 0.1 mM K-MES pH 5.0 were added for titration and the curve was generated between pH 8.1 and pH 6.4.
To measure the rate of pH dissipation of liposomes with lumenal pH=6.2, the liposomes were diluted in weakly buffered solution of identical pH as described above, but with no nigericin. […] The external pH was shifted to pH 7.3 by addition of 5 mM glycylglycine pH 8.4 and the fluorescence ratio monitored. After 10 minutes, 1 μM nigericin was added to dissipate the remaining pH gradient. The pHL was calculated using the equation pH=x*log(λex =405 nm/[…])+c, were x and c are constants from the least square fit of the titration curve. To measure the rate of pH dissipation of liposomes with pHL =8.1, the identical procedure was followed except 5 mM K-MES pH 5.0 was added to shift the external pH to 6.9.
Liposomes were loaded with pyranine, a hydrophilic, non-permeable fluorescent pH indicator to assay proton permeability. […] Two steps were taken to ensure that only pHL was measured and to permit the discrimination between dissipation of pH gradient and the lysis or dye leakage from liposomes.

[2] = Liposome chloride concentration (lucigenin); settings: after addition of 50 mM KCl; tamoxifen 2, 4, 8 μM, valinomycin 1 μM
estrogen receptor = target: T1, estrogen receptor (Homo sapiens, UniProt P03372); settings: higher affinity; cited from earlier work
T1 sequence (P03372 1-595): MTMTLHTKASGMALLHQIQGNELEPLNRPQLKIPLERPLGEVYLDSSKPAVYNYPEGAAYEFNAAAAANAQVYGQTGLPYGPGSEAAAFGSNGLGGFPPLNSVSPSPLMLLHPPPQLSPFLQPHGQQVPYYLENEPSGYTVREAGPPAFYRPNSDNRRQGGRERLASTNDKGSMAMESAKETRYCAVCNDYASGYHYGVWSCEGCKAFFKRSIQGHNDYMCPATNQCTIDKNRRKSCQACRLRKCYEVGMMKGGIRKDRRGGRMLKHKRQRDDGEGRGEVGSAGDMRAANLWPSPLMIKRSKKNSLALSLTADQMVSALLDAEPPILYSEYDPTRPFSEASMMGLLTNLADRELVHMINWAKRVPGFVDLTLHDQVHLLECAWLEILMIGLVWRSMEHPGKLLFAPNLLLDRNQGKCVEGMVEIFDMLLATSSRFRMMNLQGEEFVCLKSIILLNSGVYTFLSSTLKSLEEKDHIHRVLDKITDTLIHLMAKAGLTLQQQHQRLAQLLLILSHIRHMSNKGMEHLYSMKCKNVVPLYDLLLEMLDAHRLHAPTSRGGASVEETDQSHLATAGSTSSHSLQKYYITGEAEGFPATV

[3] = tested on: microsomes isolated from MCF-7/ADR cells; assay: In vitro acidification of MCF-7/ADR microsomes (acridine orange quenching); type: biochemical; settings: for rate of dissipation of pre-existing pH gradient: added 10 minutes after ATP, tamoxifen 8 μM, bafilomycin A1 100 nM
Procedure: Cells were grown in Minimal Essential. Medium supplemented with 10% Fetal Bovine Serum to confluence in 10 level Cell Factories (Nunc, Naperville, Ill.), trypsinized, washed 3× with cold PBS and lysed with a Dounce homogenizer (Pestle A) in 0.25 M sucrose, 20 mM HEPES (pH 7.4), 1 mM DTT, 1 mM EDTA, and 1× protease inhibitor mix (1 μg/ml leupeptin, 1 μ/ml pepstatin A, 1 μg/ml aprotinin, and 16 μM PMSF mixed to 100× before use). The homogenate was centrifuged twice for 10 minutes at 3000×g to remove unbroken cells and nuclei. The supernatant was layered over 20 ml of 0.5 M sucrose (20 mM HEPES (pH 7.4), 1 mM DTT, 1 mM EDTA, 1× protease inhibitor mix) and 1 ml of 2 M sucrose and centrifuged for 1 hour at 100,000 g (Beckman Ti60 Rotor). Microsomes are collected at the 0.5M and 2M interface.
To monitor acidification of the total microsomal fraction, the quenching of AO fluorescence was monitored essentially as described previously [Barasch et al., Nature 352:70-73 (1991)]. Acidic vesicles accumulate AO to high concentrations resulting in the self quenching of the dye and a decrease of the overall fluorescence. Fluorescence was measured on an SLM Aminco-Bowman series 2 luminescence spectrometer with λex =488 nm and λem =530 nm Microsomes (80 μg protein) were suspended in 2.5 ml vesicle buffer (125 mM KCl, 5 mM MgCl2, 20 mM HEPES (pH 7.4), 1 mM DTT, 1 mM EDTA, 2 mM NaN3), with 6 μM AO (5 mM stock in H2 O) in a cuvet. […] After equilibration for 30 minutes at 25° C. 1 mM Tris-ATP was added to begin acidification (100 mM stock, titrated to pH 7.4 with 1 M Tris-base before use). Twenty minutes later, 2.5 μM of nigericin (10 mM stock in EtOH) was added to dissipate any ΔpH formation.
Acridine orange (AO) was used as a probe for lumenal acidification. As vesicles acidify, they accumulate AO to self-quenching concentrations, and deplete the extra-vesicular free AO, resulting in a decrease in total fluorescence. Acidification was initiated by the addition of ATP to a purified microsomal fraction in the absence of cytosol (FIG. 1A, at t=300 sec). […] Nigericin, a K^+ /H^+ exchanger that rapidly dissipates pH gradients, was added at the end of each reaction (t=1500 seconds).

yeast vacuoles = assay: Acidification of yeast vacuoles (acridine orange); type: biochemical, S. cerevisiae
Procedure: Vacuoles from S. cerevisiae were prepared from the protease deficient strain BJ2407 (Yeast Genetic Stock Center, University of California, Berkeley) by sequential floatation through 12% and 8% Ficoll 400 cushion as described previously [Roberts et al., Methods Enzymol, 194:644-661 (1991)] with the single modification that 1× protease inhibitor mix and 1 mM DTT was included in each step. […] Acidification was measured using AO as described above. For acidification in chloride-free solution, gluconate or glutamate was used in vesicle buffer instead of chloride.
ATP (1.5 mM) was added at 50 sec to initiate acidification and at 400 sec nigericin (1 μM) was added to dissipate pH gradients.

## CC(C)[C@@H]1NC(=O)[C@H](C)OC(=O)[C@@H](C(C)C)NC(=O)[C@@H](C(C)C)OC(=O)[C@H](C(C)C)NC(=O)[C@H](C)OC(=O)[C@@H](C(C)C)NC(=O)[C@@H](C(C)C)OC(=O)[C@H](C(C)C)NC(=O)[C@H](C)OC(=O)[C@@H](C(C)C)NC(=O)[C@@H](C(C)C)OC1=O [valinomycin]
[1]; pHL 6.2, external pH shifted to 7.3, tamoxifen 0.5 or 2 μM, NH4Cl 1 mM, FCCP 1 μM, valinomycin 1 μM
  effect on pHL after shift of external pH: faster dissipation of the pH gradient than FCCP
[1]; pHL 8.1, external pH shifted to 6.9, tamoxifen 0.5-8 μM, NH4Cl 5 mM, FCCP 1 μM, valinomycin 1 μM
  rate of pH gradient dissipation, alkaline lumen: greater dissipation of pH gradient than FCCP
[2]
  rate of chloride influx into liposomes: increased the rate of chloride equilibration

## CC/C(=C(/c1ccc(OCCN(C)C)cc1)c1cccc(O)c1)c1ccccc1 [Droloxifene, 3-hydroxytamoxifen]
Estrogen receptor
  binding affinity to the estrogen receptor relative to tamoxifen: 10-60 fold

## CC[C@@]1([C@@H]2O[C@@H]([C@H]3O[C@@](O)(CO)[C@H](C)C[C@@H]3C)C[C@@H]2C)CC[C@H]([C@]2(C)CC[C@]3(C[C@H](O)[C@@H](C)[C@@H]([C@@H](C)[C@@H](OC)[C@H](C)C(=O)O)O3)O2)O1 [monensin]
[3]
  rate of dissipation of pre-existing pH gradient: significantly faster than tamoxifen

## CO/C1=C\C(C)=C\[C@@H](C)[C@@H](O)[C@@H](C)C/C(C)=C/C=C/[C@H](OC)[C@@H]([C@@H](C)[C@@H](O)[C@H](C)[C@@]2(O)C[C@@H](O)[C@H](C)[C@@H](C(C)C)O2)OC1=O [bafilomycin A1, Bafilomycin A1]
[3]; 10 nM (one tenth of 100 nM), pre-treatment, FIG. 1A
  acidification blocked: 95%
[3]
  rate of dissipation of pre-existing pH gradient: much slower rate

## CO[C@@H]1C[C@@H](C[C@H]2CC[C@H](C)[C@H]([C@@H](C)C(=O)O)O2)O[C@]2(O[C@](C)([C@H]3CC[C@@](C)([C@@H]4O[C@@H]([C@H]5O[C@@](O)(CO)[C@H](C)C[C@@H]5C)C[C@@H]4C)O3)C[C@H]2C)[C@@H]1C [nigericin]
[3]
  rate of dissipation of pre-existing pH gradient: significantly faster than tamoxifen

## Cl.N [ammonium chloride]
Yeast vacuoles; added at 250 sec, tamoxifen 2 μM, ammonium 1 mM
  effect of addition to pre-acidified vacuoles: step alkalinization
Yeast vacuoles; ammonium chloride 1 mM
  concentration relative to tamoxifen for similar inhibition: 1000 fold
Yeast vacuoles; pre-equilibrated, tamoxifen 2 μM or 8 μM, ammonium chloride 1 mM
  inhibition of vacuole acidification: slightly inhibited
[1]; pHL 6.2 = external pH, tamoxifen 2 μM, 8 μM, NH4Cl 5 mM
  effect of addition on pHL without pre-existing pH gradient: alkalinization of the lumen

Source: patent US6204067A, “Methods of identifying modulators of the estrogen receptor” (Board of Trustees Operating Michigan State University, priority 1999, dated 2001)
